# According to patent US11369572B2, “Fas (Apo-1,CD95) targeted platforms for intracellular drug delivery” (Queen Mary & Westfield College, priority 2009, dated 2022):
# System: IGROV1-luciferase cells
# Test: Peritoneal ovarian cancer xenograft, bioluminescence imaging
# Settings: by day 48; n=5
# Experimental: 5×10^6 IGROV1-luciferase cells were inoculated IP into female Balb C nu/nu mice on day 1. Paclitaxel (20 mg/kg) and PLGA microspheres were administered IP once per week (days 7, 14, 21 and 28). For bioluminescence imaging, mice were injected IP with 125 mg/kg D-luciferin (Calliper Life Sciences, UK) and then anesthetized (2% isofluorane by inhalation). Five minutes later, whilst still under anaesthetic, they were placed in a light-tight chamber on a warmed stage (37° C.) and light emission from a defined region of interest on a ventral surface was imaged on a Xenogen IVIS Imaging System 100 system (Alameda, Calif., USA). Data were analyzed using Living Image software (also Xenogen, Alameda, Calif., USA) and are presented as relative radiance (calculated from mean Radiance photons/s/cm2/sr).”
# Standard error of mean (SEM) was used to assess consistency between each experimental group. One way ANOVA with Bonferroni post test were used to evaluate differences between groups. Two tailed t test was used to compare two groups.
smiles,measurement,value
CC(=O)O[C@H]1C(=O)[C@@]2(C)[C@H]([C@H](OC(=O)c3ccccc3)[C@]3(O)C[C@H](OC(=O)[C@H](O)[C@@H](NC(=O)c4ccccc4)c4ccccc4)C(C)=C1C3(C)C)[C@]1(OC(C)=O)CO[C@@H]1C[C@@H]2O [paclitaxel],further animals sacrificed,2
